From the supplement of paper PMC10307832

Tests used:
Test in all cases: relative viability (nuclei count vs DMSO), 5 days (fraction); higher = more cells survive
Zebularine + Bortezomib = compound: O=c1ncccn1[C@@H]1O[C@H](CO)[C@@H](O)[C@H]1O [Zebularine] + CC(C)C[C@H](NC(=O)[C@H](Cc1ccccc1)NC(=O)c1cnccn1)B(O)O [Bortezomib] (partner 0.002 µM)
Procedure, shortened: (§1)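 Relative viability was taken as the ratio of nuclei in treated wells to nuclei in vehicle wells. Lung cancer cell lines in 1536-well plates received compounds by pin tool one day after seeding, either one drug alone or a fixed anchor-drug dose plus five library-drug doses (not always all listed) in √10 steps. Nuclei were counted on 4× images after 5 days of treatment, and values are medians of duplicate plates.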

Zebularine + Tozasertib = compound: O=c1ncccn1[C@@H]1O[C@H](CO)[C@@H](O)[C@H]1O [Zebularine] + Cc1cc(Nc2cc(N3CCN(C)CC3)nc(Sc3ccc(NC(=O)C4CC4)cc3)n2)n[nH]1 [Tozasertib] (partner 0.1 µM)
Procedure, shortened: as §1

Zebularine + Pemetrexed = compound: O=c1ncccn1[C@@H]1O[C@H](CO)[C@@H](O)[C@H]1O [Zebularine] + Nc1nc2[nH]cc(CCc3ccc(C(=O)N[C@@H](CCC(=O)O)C(=O)O)cc3)c2c(=O)[nH]1 [Pemetrexed] (partner 0.2 µM)
Procedure, shortened: as §1

BI-D1870 + Dasatinib = compound: CC(C)CCN1c2nc(Nc3cc(F)c(O)c(F)c3)ncc2N(C)C(=O)C1C [BI-D1870] + Cc1nc(Nc2ncc(C(=O)Nc3c(C)cccc3Cl)s2)cc(N2CCN(CCO)CC2)n1 [Dasatinib] (partner 0.075 µM)
Procedure, shortened: as §1

| Cell Line | relative viability (Zebularine + Bortezomib; first compound 1 µM) | relative viability (Zebularine + Bortezomib; first compound 3.162 µM) | relative viability (Zebularine + Bortezomib; first compound 10 µM) | relative viability (Zebularine + Bortezomib; first compound 31.62 µM) | relative viability (Zebularine + Bortezomib; first compound 100 µM) | relative viability (Zebularine + Tozasertib; first compound 1 µM) | relative viability (Zebularine + Tozasertib; first compound 3.162 µM) | relative viability (Zebularine + Tozasertib; first compound 10 µM) | relative viability (Zebularine + Tozasertib; first compound 31.62 µM) | relative viability (Zebularine + Tozasertib; first compound 100 µM) | relative viability (Zebularine + Pemetrexed; first compound 1 µM) | relative viability (Zebularine + Pemetrexed; first compound 3.162 µM) | relative viability (Zebularine + Pemetrexed; first compound 10 µM) | relative viability (Zebularine + Pemetrexed; first compound 31.62 µM) | relative viability (Zebularine + Pemetrexed; first compound 100 µM) | relative viability (BI-D1870 + Dasatinib; first compound 0.04 µM) | relative viability (BI-D1870 + Dasatinib; first compound 0.1265 µM) | relative viability (BI-D1870 + Dasatinib; first compound 0.4 µM) | relative viability (BI-D1870 + Dasatinib; first compound 1.265 µM) | relative viability (BI-D1870 + Dasatinib; first compound 4 µM) |
| --- | --- | --- | --- | --- | --- | --- | --- | --- | --- | --- | --- | --- | --- | --- | --- | --- | --- | --- | --- | --- |
| NCI-H1299 | 1.01 | 1.06 | 0.969 | 1.08 | 0.747 |  |  |  |  |  |  |  |  |  |  |  |  |  |  |  |
| NCI-H1395 |  |  |  |  |  | 0.72 | 0.707 | 0.647 | 0.501 | 0.479 | 1.05 | 0.787 | 0.661 | 0.749 | 0.489 | 0.471 | 0.432 | 0.428 | 0.359 | 0.384 |
| NCI-H1563 | 0.826 | 1.02 | 0.874 | 1.04 | 0.928 |  |  |  |  |  | 0.896 | 0.717 | 0.689 | 0.728 | 0.791 | 0.456 | 0.434 | 0.425 | 0.506 | 0.477 |
| NCI-H1623 |  |  |  |  |  | 0.513 | 0.437 | 0.39 | 0.535 | 0.389 |  |  |  |  |  | 0.558 | 0.581 | 0.527 | 0.473 | 0.452 |
| NCI-H1648 |  |  |  |  |  | 0.551 | 0.418 | 0.407 | 0.342 | 0.379 | 0.652 | 0.613 | 0.518 | 0.804 | 0.683 |  |  |  |  |  |
| NCI-H1703 | 0.273 | 0.302 | 0.296 | 0.512 | 0.411 |  |  |  |  |  |  |  |  |  |  |  |  |  |  |  |
| NCI-H1792 | 0.989 | 0.932 | 0.369 | 0.382 | 0.359 |  |  |  |  |  | 1.04 | 0.71 | 0.24 | 0.307 | 0.271 | 0.841 | 0.68 | 0.599 | 0.829 | 0.645 |
| NCI-H1793 |  |  |  |  |  | 0.401 | 0.354 |  | 0.206 | 0.174 | 1.08 | 0.92 | 0.292 | 0.347 | 0.287 | 0.423 | 0.334 | 0.396 | 0.39 | 0.309 |
| NCI-H1944 |  |  |  |  |  | 0.274 | 0.268 | 0.213 | 0.254 | 0.234 | 0.696 | 0.604 | 0.614 | 0.573 | 0.357 | 0.216 | 0.214 | 0.215 | 0.253 | 0.238 |
| NCI-H2170 |  |  |  |  |  | 0.815 | 0.708 | 0.655 | 0.636 | 0.285 | 0.273 | 0.289 | 0.273 | 0.27 | 0.221 | 0.735 | 0.584 | 0.529 | 0.54 | 0.575 |
| NCI-H2342 |  |  |  |  |  | 0.451 | 0.4 | 0.446 | 0.476 | 0.469 | 0.795 | 0.73 | 0.572 | 0.749 | 0.628 | 0.333 | 0.313 | 0.315 | 0.329 | 0.406 |
| SK-MES-1 |  |  |  |  |  | 1.02 | 0.991 | 0.599 | 0.611 | 0.248 | 1.08 | 0.918 | 0.613 | 0.709 | 0.322 | 0.44 | 0.369 | 0.323 | 0.362 | 0.3 |
| SW 900 |  |  |  |  |  | 0.659 | 0.548 | 0.445 | 0.478 | 0.371 | 0.534 | 0.483 |  | 0.53 | 0.41 | 0.66 | 0.456 | 0.662 | 0.499 | 0.338 |
